Measured values from patent US6613317B1, “Volatile attractants for diabrotica species” (priority 1988, dated 2003).

What was measured:
NCR [1] = assay: Limit of response rating of squash blossom volatiles on sticky traps (Example 5); format: in vivo, Diabrotica barberi; conditions: 24 hour; four replicate traps; 0.01 mg to 200 mg
Outline: (§1)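 Adult Diabrotica beetles were tested against cylindrical sticky traps baited with cotton wicks holding 0.01 mg to 200 mg of individual Cucurbita maxima blossom volatiles. Response limit rated by trap catch.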

WCR = assay: as above; format: in vivo, Diabrotica virgifera virgifera; conditions: 24 hour; four replicate traps; 0.01 mg to 200 mg
Outline: as §1

D. u. howardi adults = format: in vivo, Diabrotica undecimpunctata howardi; conditions: 1% incorporated into TEX×PEP bait, petri-dish tests
Description: A noncucurbit carrier, 10-mesh corn grits (71% of which passed through a 2-mm screen), was obtained from Illinois Cereal Mills, Paris, Ill. (designated as pesticide carrier grits, 980). This carrier was impregnated with different levels of cucurbitacins by addition of varying amounts of a chloroform extract of AND×MAX fruit containing 0.12% cucurbitacins B and D (Metcalf, et al., Proc. Natl. Acad. Sci. USA, 77:3769-3772 (1980), Metcalf, et al., Environ. Entomol., 11:921-927 (1982)). The cucurbitacin-containing areas were scraped from plates, extracted in anhydrous methanol, centrifuged, and the UV absorption at 210 nm determined by UV spectrophotometry. Content of cucurbitacins was quantified from standard curves of pure cucurbitacins B, D, E and I, and E-glycoside (Metcalf, et al., Proc. Natl. Acad. Sci. USA, 77:3769-3772 (1980), Metcalf, et al., Environ. Entomol., 11:921-927 (1982)).
The various dried, ground, and insecticide-treated baits were given preliminary field evaluation by placing uniform amounts in petri-dish halves (150-mm diameter) that were placed at random on the ground in cucurbit and corn rows heavily infested ith SCR, WCR, and SCB adults. Ten dishes were used for each treatment; the maximum dosage of dried baits used was 300 mg per dish, equivalent to […]. Mortality counts of adult beetles in the dishes were made after 20-40 h.

NCR [2] = conditions: in vivo; cited from earlier work
[3] = test system: western corn rootworm (WCR) adults; assay: Sticky trap attraction in sweet corn plots (Example 1); format: in vivo, Diabrotica virgifera virgifera; conditions: August first year, single compounds 100 mg per trap
Outline: (§2)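 Field trapping in sweet-corn plots beside a Blue Hubbard squash trap crop; lures on mineral-oil-impregnated cotton wicks atop sticky paper-carton traps on 1-m posts, 4 replicates in randomized complete blocks. Beetles counted after 24 h; VIPAE/VIP/TIC mixtures and single components at 1–300 mg per trap, ANOVA/Duncan at P=0.05.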

[4] = test system: southern corn rootworm (SCR) adults; assay: as above; format: in vivo, Diabrotica undecimpunctata howardi; conditions: August first year, single compounds 100 mg per trap
Outline: as §2

[5] = South Farms, 24 h, mixture 20 mg of each component, n = 4

SMILES	Attractant Rating NCR (by limit of response) (NCR [1])	Attractant Rating WCR (by limit of response) (WCR)	increase in the kill of SCR beetles (D. u. howardi adults) [fold]	LR for NCR, most effective volatile attractant yet identified (NCR [2]) [mg]	Mean number of WCR per trap (±standard deviation) [3, 5] [per trap]	relative percent activity of the mean WCR trap catch as compared with the highest mean value in the column ([3]; mixture 20 mg each component) [%]	Mean number of SCR per trap (±standard deviation) [4, 5] [per trap]	relative percent activity of the mean SCR trap catch as compared with the highest mean value in the column ([4]; mixture 20 mg each component) [%]
OCC=Cc1ccccc1 [XVIII, cinnamyl alcohol]	+3 (3-10)	+1 (30-100)						
C=CCc1ccc(O)c(OC)c1 [XXIV, eugenol]			4	10	2.8 ± 1.0	41	2.8 ± 2.8	13
